Reference: ChEMBL document CHEMBL1201862, “PubChem BioAssay data set” (2004)
Active and inactive are the calls of the source.

Tests used:
Type in all cases: functional
[1] = biological target: Dual specificity protein kinase CLK2 (Homo sapiens, UniProt P49760)
Aurora kinase A = Aurora kinase A (Homo sapiens, UniProt O14965);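 further: value from the Navigating the Kinome kinase panel profiling, panel entry STK6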
[2] = biological target: T1, Tyrosine-protein kinase JAK3 (Homo sapiens, UniProt P52333)
T1 sequence (P52333 whole entry): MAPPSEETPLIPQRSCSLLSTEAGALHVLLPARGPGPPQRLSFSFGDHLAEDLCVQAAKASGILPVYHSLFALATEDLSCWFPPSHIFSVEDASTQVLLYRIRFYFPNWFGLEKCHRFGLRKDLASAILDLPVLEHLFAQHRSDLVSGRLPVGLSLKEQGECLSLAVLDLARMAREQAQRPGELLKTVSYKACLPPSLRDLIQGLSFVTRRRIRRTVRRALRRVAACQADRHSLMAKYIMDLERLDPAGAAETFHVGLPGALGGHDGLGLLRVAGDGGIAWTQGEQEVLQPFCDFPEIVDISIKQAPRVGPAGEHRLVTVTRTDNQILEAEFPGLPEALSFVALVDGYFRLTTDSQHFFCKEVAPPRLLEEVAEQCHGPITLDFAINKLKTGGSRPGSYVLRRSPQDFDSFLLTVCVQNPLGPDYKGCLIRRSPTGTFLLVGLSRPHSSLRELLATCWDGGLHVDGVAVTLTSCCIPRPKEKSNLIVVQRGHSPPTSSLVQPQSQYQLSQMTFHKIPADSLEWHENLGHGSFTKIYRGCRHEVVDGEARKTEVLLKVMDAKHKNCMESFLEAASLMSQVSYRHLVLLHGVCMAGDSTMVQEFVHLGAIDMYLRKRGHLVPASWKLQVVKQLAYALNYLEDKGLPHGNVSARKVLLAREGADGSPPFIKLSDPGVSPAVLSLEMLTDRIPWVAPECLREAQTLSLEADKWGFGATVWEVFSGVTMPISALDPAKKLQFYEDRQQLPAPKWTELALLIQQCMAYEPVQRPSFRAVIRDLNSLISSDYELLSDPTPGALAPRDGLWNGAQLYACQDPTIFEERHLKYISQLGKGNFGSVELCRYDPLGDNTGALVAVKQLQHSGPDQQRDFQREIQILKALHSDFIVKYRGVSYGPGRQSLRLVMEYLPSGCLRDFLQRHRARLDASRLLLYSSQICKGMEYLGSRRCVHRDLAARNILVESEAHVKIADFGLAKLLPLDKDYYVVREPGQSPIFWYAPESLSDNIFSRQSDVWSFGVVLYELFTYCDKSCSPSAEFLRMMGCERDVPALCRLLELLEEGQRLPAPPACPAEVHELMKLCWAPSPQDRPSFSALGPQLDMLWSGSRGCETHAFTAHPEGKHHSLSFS

[3] = biological target: Glycogen synthase kinase-3 alpha (Homo sapiens, UniProt P49840);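 further: GSK3A result taken from a broad kinome-wide kinase panel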
[4] = biological target: Mitogen-activated protein kinase kinase kinase kinase 2 (Homo sapiens, UniProt Q12851);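 further: measured as one member of a kinome-wide kinase panel, with MAP4K2 as the panel entry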
[5] = biological target: T2, Serine/threonine-protein kinase Chk1 (Homo sapiens, UniProt O14757);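 further: measured as one member of a kinome-wide kinase profiling panel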
T2 sequence (O14757 whole entry): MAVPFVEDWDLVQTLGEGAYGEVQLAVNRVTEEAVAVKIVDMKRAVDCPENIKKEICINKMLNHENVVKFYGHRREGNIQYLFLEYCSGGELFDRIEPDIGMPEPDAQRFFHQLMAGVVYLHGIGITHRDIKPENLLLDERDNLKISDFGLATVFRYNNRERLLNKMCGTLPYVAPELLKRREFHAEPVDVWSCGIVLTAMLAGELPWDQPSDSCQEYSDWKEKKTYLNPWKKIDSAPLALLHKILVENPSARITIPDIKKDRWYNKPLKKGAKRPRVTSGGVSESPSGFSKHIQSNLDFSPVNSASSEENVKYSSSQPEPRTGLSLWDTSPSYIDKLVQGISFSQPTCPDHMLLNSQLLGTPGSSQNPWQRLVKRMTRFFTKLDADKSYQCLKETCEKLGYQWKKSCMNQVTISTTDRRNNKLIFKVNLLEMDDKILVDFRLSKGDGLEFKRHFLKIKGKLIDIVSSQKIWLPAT

[6] = biological target: Rho-associated protein kinase 1 (Homo sapiens, UniProt Q13464);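 further: measured within a broad kinome-wide panel profiling many kinases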
[7] = biological target: BDNF/NT-3 growth factors receptor (Homo sapiens, UniProt Q16620);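 further: NTRK2 measured as one member of a broad kinome-wide kinase profiling panel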
[8] = biological target: Mitogen-activated protein kinase kinase kinase kinase 4 (Homo sapiens, UniProt O95819)
[9] = biological target: Dual specificity mitogen-activated protein kinase kinase 2 (Homo sapiens, UniProt P36507); assay: Navigating the Kinome. Panel member name: MAP2K2
[10] = biological target: Matrix metalloproteinase-14 (Homo sapiens, UniProt P50281); assay: Dose Response confirmation of uHTS hits for a small molecule inhibitors of MT1-MMP activation in a fluorescence assay set 1.

Chain of Glycogen synthase kinase-3 alpha (P49840 whole entry): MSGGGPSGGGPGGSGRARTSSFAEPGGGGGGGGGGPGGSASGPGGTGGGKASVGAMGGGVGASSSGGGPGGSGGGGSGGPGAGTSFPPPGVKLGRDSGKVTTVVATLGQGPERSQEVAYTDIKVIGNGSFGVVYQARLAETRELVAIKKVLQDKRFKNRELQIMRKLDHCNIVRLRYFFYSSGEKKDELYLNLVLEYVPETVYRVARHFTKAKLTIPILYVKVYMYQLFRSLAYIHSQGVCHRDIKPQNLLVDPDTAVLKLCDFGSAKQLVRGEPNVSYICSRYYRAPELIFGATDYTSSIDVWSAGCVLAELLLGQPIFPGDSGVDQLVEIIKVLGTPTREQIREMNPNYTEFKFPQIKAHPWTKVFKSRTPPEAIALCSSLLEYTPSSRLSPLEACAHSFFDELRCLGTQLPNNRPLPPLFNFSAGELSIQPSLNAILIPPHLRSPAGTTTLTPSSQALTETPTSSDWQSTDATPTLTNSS
Chain of Dual specificity protein kinase CLK2 (P49760 whole entry): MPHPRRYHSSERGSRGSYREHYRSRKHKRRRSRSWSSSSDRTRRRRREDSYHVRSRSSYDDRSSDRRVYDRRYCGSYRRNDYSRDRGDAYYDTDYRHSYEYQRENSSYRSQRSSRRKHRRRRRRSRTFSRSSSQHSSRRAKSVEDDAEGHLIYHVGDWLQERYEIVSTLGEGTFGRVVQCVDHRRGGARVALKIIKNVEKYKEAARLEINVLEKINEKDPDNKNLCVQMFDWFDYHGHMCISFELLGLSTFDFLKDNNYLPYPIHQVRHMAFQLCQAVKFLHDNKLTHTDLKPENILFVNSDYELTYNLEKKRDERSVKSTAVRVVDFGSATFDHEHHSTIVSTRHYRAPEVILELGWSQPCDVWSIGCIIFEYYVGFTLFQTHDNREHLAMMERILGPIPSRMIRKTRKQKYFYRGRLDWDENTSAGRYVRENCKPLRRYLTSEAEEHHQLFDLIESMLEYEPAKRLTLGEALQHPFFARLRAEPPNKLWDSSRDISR
Chain of Rho-associated protein kinase 1 (Q13464 whole entry): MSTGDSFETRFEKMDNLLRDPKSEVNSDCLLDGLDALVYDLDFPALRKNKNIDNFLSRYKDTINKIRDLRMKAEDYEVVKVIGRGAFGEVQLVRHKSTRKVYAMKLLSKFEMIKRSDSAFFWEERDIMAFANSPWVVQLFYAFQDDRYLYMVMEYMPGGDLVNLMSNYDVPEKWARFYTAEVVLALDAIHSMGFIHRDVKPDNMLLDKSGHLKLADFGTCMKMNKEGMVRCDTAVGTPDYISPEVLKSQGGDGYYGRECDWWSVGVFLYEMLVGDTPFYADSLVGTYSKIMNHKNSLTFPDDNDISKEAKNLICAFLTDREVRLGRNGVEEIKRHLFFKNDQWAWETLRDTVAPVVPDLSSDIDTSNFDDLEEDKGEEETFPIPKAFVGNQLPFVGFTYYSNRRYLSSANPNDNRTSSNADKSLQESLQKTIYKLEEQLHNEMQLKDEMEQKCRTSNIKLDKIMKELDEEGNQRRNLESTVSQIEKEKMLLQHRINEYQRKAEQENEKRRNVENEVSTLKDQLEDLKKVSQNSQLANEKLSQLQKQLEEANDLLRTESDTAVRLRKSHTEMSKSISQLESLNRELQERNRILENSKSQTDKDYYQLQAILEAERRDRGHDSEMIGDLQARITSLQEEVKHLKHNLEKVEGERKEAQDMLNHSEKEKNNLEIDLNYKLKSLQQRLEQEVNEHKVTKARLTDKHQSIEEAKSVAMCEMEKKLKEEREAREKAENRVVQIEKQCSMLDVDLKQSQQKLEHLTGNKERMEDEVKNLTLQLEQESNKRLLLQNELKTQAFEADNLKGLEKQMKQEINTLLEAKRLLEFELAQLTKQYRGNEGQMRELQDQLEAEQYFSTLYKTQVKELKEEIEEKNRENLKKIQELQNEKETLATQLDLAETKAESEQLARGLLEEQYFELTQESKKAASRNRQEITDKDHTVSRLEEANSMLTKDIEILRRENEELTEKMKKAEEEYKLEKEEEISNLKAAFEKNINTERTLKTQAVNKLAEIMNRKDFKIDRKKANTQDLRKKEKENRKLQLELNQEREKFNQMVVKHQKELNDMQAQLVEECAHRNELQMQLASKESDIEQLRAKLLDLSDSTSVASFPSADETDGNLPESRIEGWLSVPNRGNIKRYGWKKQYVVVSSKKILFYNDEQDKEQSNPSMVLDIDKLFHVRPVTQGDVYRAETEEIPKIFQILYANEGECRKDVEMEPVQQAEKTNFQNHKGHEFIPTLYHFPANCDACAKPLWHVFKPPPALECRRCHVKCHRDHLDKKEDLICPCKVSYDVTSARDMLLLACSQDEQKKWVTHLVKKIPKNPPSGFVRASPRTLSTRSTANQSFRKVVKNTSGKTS
Chain of Aurora kinase A (O14965 whole entry): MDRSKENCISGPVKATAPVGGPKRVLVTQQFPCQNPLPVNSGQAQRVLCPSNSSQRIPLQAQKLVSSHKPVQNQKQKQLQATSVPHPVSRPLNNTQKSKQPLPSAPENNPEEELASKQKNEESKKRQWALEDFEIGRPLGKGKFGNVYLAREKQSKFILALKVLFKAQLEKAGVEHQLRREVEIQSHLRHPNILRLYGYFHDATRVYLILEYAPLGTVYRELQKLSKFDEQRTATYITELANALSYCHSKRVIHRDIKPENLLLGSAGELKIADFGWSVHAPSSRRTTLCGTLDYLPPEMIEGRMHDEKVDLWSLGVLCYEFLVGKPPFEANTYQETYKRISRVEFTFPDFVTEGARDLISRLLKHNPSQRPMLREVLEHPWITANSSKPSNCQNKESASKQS
Chain of Mitogen-activated protein kinase kinase kinase kinase 4 (O95819 whole entry): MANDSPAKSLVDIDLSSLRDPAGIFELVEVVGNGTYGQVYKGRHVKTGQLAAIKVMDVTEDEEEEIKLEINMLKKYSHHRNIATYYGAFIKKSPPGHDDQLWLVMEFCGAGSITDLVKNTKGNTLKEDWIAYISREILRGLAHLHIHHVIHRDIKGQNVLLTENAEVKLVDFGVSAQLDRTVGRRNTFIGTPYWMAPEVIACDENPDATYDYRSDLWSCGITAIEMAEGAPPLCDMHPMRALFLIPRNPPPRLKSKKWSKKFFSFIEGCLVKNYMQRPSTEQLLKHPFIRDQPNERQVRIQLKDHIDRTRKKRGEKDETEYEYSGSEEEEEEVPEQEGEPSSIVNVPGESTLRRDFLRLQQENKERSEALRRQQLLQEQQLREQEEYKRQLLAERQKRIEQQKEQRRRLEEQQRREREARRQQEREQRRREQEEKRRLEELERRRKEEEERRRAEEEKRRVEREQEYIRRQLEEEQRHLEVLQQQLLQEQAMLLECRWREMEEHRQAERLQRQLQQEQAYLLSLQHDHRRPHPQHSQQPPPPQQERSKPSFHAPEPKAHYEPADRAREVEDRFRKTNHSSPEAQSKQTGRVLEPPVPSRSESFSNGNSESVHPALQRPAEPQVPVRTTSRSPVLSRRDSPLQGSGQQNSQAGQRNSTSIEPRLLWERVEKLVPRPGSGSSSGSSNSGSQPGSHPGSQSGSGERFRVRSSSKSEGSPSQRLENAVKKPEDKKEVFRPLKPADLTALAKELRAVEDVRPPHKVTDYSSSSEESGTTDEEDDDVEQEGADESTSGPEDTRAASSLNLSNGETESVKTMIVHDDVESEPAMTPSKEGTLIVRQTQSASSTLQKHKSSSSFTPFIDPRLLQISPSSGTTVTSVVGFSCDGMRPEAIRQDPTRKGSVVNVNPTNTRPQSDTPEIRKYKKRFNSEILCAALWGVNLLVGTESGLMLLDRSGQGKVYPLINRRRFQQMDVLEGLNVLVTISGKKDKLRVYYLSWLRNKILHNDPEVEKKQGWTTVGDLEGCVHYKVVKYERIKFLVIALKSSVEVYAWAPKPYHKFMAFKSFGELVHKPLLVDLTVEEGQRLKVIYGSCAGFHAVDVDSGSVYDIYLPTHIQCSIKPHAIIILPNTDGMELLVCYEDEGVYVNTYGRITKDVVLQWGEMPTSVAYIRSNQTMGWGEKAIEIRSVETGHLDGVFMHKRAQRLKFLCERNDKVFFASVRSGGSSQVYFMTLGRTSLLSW
Chain of Mitogen-activated protein kinase kinase kinase kinase 2 (Q12851 whole entry): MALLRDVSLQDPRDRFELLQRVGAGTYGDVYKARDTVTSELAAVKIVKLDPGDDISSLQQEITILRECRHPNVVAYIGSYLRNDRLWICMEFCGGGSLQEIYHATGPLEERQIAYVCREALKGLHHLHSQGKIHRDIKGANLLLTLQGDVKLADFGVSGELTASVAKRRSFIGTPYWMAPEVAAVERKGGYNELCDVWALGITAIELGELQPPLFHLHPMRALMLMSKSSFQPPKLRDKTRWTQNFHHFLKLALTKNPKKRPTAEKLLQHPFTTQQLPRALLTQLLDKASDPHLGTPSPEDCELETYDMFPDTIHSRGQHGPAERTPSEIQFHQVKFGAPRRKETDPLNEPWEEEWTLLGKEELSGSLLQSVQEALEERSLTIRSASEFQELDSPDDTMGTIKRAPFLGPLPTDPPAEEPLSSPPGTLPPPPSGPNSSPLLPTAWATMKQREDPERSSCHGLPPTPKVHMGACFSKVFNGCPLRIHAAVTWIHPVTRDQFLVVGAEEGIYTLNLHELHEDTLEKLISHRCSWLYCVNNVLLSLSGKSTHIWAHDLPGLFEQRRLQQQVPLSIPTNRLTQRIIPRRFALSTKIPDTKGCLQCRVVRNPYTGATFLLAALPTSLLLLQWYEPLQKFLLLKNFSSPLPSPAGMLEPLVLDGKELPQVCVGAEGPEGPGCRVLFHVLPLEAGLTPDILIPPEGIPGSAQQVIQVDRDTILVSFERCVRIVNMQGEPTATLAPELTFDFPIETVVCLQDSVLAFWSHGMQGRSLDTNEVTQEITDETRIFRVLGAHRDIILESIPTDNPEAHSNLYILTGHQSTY

Ki [1]	Ki (Aurora kinase A)	Ki [2]	Ki [3]	Ki [4]	Ki [5]	Ki [6]	Ki [7]	Ki [8]	Ki [9]	Compound	IC50 [10]
> 3980 nM (inactive)	200 nM (active)	> 5010 nM (inactive)	1000 nM (active)	> 2510 nM (inactive)	79.4 nM (active)	1.26 nM (active)	> 3980 nM (inactive)	5010 nM (active)	> 3980 nM (inactive)	COc1cccc(C(C)NC(=O)c2ccc(-c3ccncc3)s2)c1 (stereo unspecified)	–
–	–	–	–	–	–	–	–	–	–	O=Nc1c(-c2c(O)[nH]c3cc(Br)ccc23)[nH]c2ccccc12	1780 nM (active)
